Test results: BindingDB's records for doi:10.1021/jm000013n (The University of Queensland, 2000)
pIC50: −log10 of the molar value.

Assay: Inhibition of virion associated RT activity relative to untreated, infected control in cord blood mononuclear cells (CBMC) infected with HIV -1 TC354 strain

For `CC[C@@H](C)[C@@H]1NC(=O)[C@@H](NC[C@@H](O)[C@H](Cc2ccccc2)NC(=O)[C@@H](NC(=O)c2ccc3ccccc3n2)C(C)C)Cc2ccc(cc2)OCCCNC1=O`, the pIC50 was 7.02.

Molecule `O=C1N(Cc2ccc(CO)cc2)[C@H](Cc2ccccc2)[C@H](O)[C@@H](O)[C@@H](Cc2ccccc2)N1Cc1ccc(CO)cc1` [(4R,5S,6S,7R)-4,7-dibenzyl-5,6-dihydroxy-1,3-bis({[4-(hydroxymethyl)phenyl]methyl})-1,3-diazepan-2-one] has a pIC50 of 6.96.
